Test results reported in ChEMBL document CHEMBL1201862, “PubChem BioAssay data set” (2004).
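Interpolation was linear, between the two tested concentrations surrounding the appropriate level; five concentrations were tested over 48 hours in 96-well plates. The concentration for 50% growth inhibition is given as GI50.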 Calls of active or inactive are those of the source. Rule as the data show it: active = GI50 up to about 1.1 µM and inactive = higher.

Key:
Assay in all cases: NCI-60 cell line screen, 48 h
TK-10 = tested on: TK-10
A498 = tested on: A498
Malme-3M = tested on: Malme-3M
HCT-15 = tested on: HCT-15
EKVX = tested on: EKVX
NCI/ADR-RES = tested on: NCI/ADR-RES
ACHN = tested on: ACHN
UO-31 = tested on: UO-31
MDA-N = tested on: MDA-N
SN12C = tested on: SN12C
HCC 2998 = tested on: HCC 2998
COLO 205 = tested on: COLO 205
SF-295 = tested on: SF-295
RXF 393 = tested on: RXF 393
SR = tested on: SR
Hs-578T = tested on: Hs-578T
UACC-62 = tested on: UACC-62
IGROV-1 = tested on: IGROV-1
A549 = tested on: A549
MOLT-4 = tested on: MOLT-4
786-0 = tested on: 786-0
HOP-62 = tested on: HOP-62
NCI-H226 = tested on: NCI-H226
K562 = tested on: K562
SW-620 = tested on: SW-620
OVCAR-3 = tested on: OVCAR-3
RPMI-8226 = tested on: RPMI-8226
SK-MEL-28 = tested on: SK-MEL-28
MDA-MB-435 = tested on: MDA-MB-435
KM12 = tested on: KM12
U-251 = tested on: U-251
NCI-H23 = tested on: NCI-H23
HL-60 = tested on: HL-60
OVCAR-5 = tested on: OVCAR-5
DU-145 = tested on: DU-145
LOX IMVI = tested on: LOX IMVI
SK-MEL-5 = tested on: SK-MEL-5
OVCAR-4 = tested on: OVCAR-4
MDA-MB-231 = tested on: MDA-MB-231
SNB-19 = tested on: SNB-19
HCT-116 = tested on: HCT-116
SK-MEL-2 = tested on: SK-MEL-2
CAKI-1 = tested on: CAKI-1
OVCAR-8 = tested on: OVCAR-8
M14 = tested on: M14
BT-549 = tested on: BT-549
MCF7 = tested on: MCF7
SF-539 = tested on: SF-539
HOP-92 = tested on: HOP-92
SK-OV-3 = tested on: SK-OV-3
CCRF-CEM = tested on: CCRF-CEM
HT-29 = tested on: HT-29
PC-3 = tested on: PC-3
NCI-H522 = tested on: NCI-H522
T47D = tested on: T47D
SF-268 = tested on: SF-268
UACC-257 = tested on: UACC-257
SNB-75 = tested on: SNB-75

Measured: GI50

C=C1CC[C@@H]2[C@](C)(COC(=O)CCC(=O)O)CCC[C@@]2(C)[C@@H]1CCC1=CC(=O)OC1
> 100 µM: HCT-15
inactive: TK-10 > 100 µM | A498 > 100 µM | Malme-3M > 100 µM | EKVX > 100 µM | NCI/ADR-RES > 100 µM | ACHN > 100 µM | UO-31 > 100 µM | MDA-N > 100 µM | SN12C > 100 µM | HCC 2998 > 100 µM | COLO 205 > 100 µM | SF-295 > 100 µM | RXF 393 > 100 µM | SR > 10 µM | Hs-578T > 100 µM | UACC-62 > 100 µM | IGROV-1 > 100 µM | A549 > 100 µM | MOLT-4 > 100 µM | 786-0 > 100 µM | HOP-62 > 100 µM | NCI-H226 > 100 µM | K562 > 100 µM | SW-620 > 100 µM | OVCAR-3 > 100 µM | RPMI-8226 > 100 µM | SK-MEL-28 > 100 µM | MDA-MB-435 > 100 µM | KM12 > 100 µM | U-251 > 100 µM | NCI-H23 > 100 µM | HL-60 > 100 µM | OVCAR-5 > 100 µM | DU-145 5.97 µM | LOX IMVI > 100 µM | SK-MEL-5 42.9 µM | OVCAR-4 > 100 µM | MDA-MB-231 > 100 µM | SNB-19 > 100 µM | HCT-116 > 100 µM | SK-MEL-2 > 100 µM | CAKI-1 > 100 µM | OVCAR-8 > 100 µM | M14 > 100 µM | BT-549 > 100 µM | MCF7 > 100 µM | SF-539 > 100 µM | HOP-92 > 100 µM | SK-OV-3 > 100 µM | CCRF-CEM > 100 µM | HT-29 > 100 µM | PC-3 > 100 µM | NCI-H522 > 100 µM | T47D > 100 µM | SF-268 > 100 µM | UACC-257 > 100 µM | SNB-75 > 100 µM
